Results on three molecules are retold here after patent US10167262B2, “Herbicidal substituted 3-arylpyrazoles” (FMC CORPORATION, priority 2014, dated 2019).

Common to all, as to assay: Test A pre-/postemergence greenhouse herbicide test, visual injury rating 0-100
Holding throughout (type): in vivo
Holding throughout (settings): 1000 g ai/ha

One experiment has as its system corn (Zea mays). From the text: (§1) Seeds of plant species selected from barnyardgrass (Echinochloa crus-galli), large (Lg) crabgrass (Digitaria sanguinalis), giant foxtail (Setaria faberii), morningglory (Ipomoea spp.), pigweed (Amaranthus retroflexus), velvetleaf (Abutilon theophrasti), wheat (Triticum aestivum), and corn (Zea mays) were planted into a blend of loam soil and sand and treated preemergence with a directed soil spray using test chemicals formulated in a non-phytotoxic solvent mixture which included a surfactant. At the same time these species were also treated with postemergence applications of test chemicals formulated in the same manner. Plants ranged in height from 2 to 10 cm and were in the one- to two-leaf stage for the postemergence treatment. Treated plants and untreated controls were maintained in a greenhouse for approximately 10 days, after which time all treated plants were compared to untreated controls and visually evaluated for injury. Plant response ratings, summarized in Table A, are based on a 0 to 100 scale where 0 is no effect and 100 is complete control. A dash (-) response means no test result.

The subject of experiment [1] is wheat (Triticum aestivum).
Excerpt: as §1

Experiment [2] has as its system giant foxtail (Setaria faberii).
Excerpt: as §1

In experiment [3] the test system is morningglory (Ipomoea spp.).
Excerpt: as §1

Experiment [4] deals with large (Lg) crabgrass (Digitaria sanguinalis).
Excerpt: as §1

Experiment [5] relates to barnyardgrass (Echinochloa crus-galli).
Excerpt: as §1

In experiment [6] the test system is velvetleaf (Abutilon theophrasti).
Excerpt: as §1

Experiment [7] relates to pigweed (Amaranthus retroflexus).
Excerpt: as §1

Molecules are shown by their SMILES.

`CC(=O)n1cc(C(=O)c2cncc(F)c2)c(-c2cc(Cl)cc(Cl)c2)n1` [Compound 20]: the “Plant response rating (0 to 100 scale), Corn” value (“Plant response rating … Corn” for short) in the experiment on corn (Zea mays) (Postemergence) and with corn (Zea mays) (Preemergence) was 0 each time. Moreover, the “Plant response rating (0 to 100 scale), Wheat” value (“Plant response rating … Wheat” for short) in experiment [1] (Postemergence) and in experiment [1] (Preemergence) was 0 in each case. For the same molecule, the “Plant response rating (0 to 100 scale), Foxtail, Giant” value (from here on “Plant response rating … Giant”) in experiment [2] (Postemergence) and in experiment [2] (Preemergence) was 0 throughout. The “Plant response rating (0 to 100 scale), Morningglory” value (“Plant response rating … Morningglory” below) in experiment [3] (Postemergence) and in experiment [3] (Preemergence) was 0 each time. Also, the “Plant response rating (0 to 100 scale), Crabgrass, Large” value (“Plant response rating … Large” below) in experiment [4] (Postemergence) and in experiment [4] (Preemergence) was 0 each time. In addition, the “Plant response rating (0 to 100 scale), Barnyardgrass” value (shortened to “Plant response rating … Barnyardgrass”) in experiment [5] (Postemergence) and in experiment [5] (Preemergence) was 0 each time. The “Plant response rating (0 to 100 scale), Velvetleaf” value (shortened to “Plant response rating … Velvetleaf”) in experiment [6] (Postemergence) was found to be 90; in experiment [6] (Preemergence) it was 80. For the same molecule, the “Plant response rating (0 to 100 scale), Pigweed” value (“Plant response rating … Pigweed” below) in experiment [7] (Postemergence) is listed as 90; in experiment [7] (Preemergence), 100.
With `CCn1cc(C(=O)c2cncc(F)c2)c(-c2cc(Cl)cc(Cl)c2)n1` [Compound 21], the “Plant response rating … Corn” value in the experiment with corn (Zea mays) (Postemergence) and with corn (Zea mays) (Preemergence) was 0 each time. The “Plant response rating … Wheat” value in experiment [1] (Postemergence) and in experiment [1] (Preemergence) was 0 each time. For the same molecule, the “Plant response rating … Giant” value in experiment [2] (Postemergence) and in experiment [2] (Preemergence) was 0 each time. In addition, the “Plant response rating … Morningglory” value in experiment [3] (Postemergence) and in experiment [3] (Preemergence) was 0 each time. The “Plant response rating … Large” value is given as 10 in experiment [4] (Postemergence) and 0 in experiment [4] (Preemergence). The “Plant response rating … Barnyardgrass” value in experiment [5] (Postemergence) and in experiment [5] (Preemergence) was 0 in each case. Moreover, the “Plant response rating … Velvetleaf” value in experiment [6] (Postemergence) amounted to 90; in experiment [6] (Preemergence) it was 80. Moreover, the results for the “Plant response rating … Pigweed” value in experiment [7] (Postemergence) and in experiment [7] (Preemergence) were 100 and 80, respectively.
Turning to `Clc1cc(Cl)cc(-c2n[nH]cc2C(=NN2CCCCC2)c2ccccc2)c1` [Compound 51], the “Plant response rating … Corn” value with corn (Zea mays) (Postemergence) and in the experiment on corn (Zea mays) (Preemergence) was 0 each time. The “Plant response rating … Wheat” value in experiment [1] (Postemergence) and in experiment [1] (Preemergence) was 0 each time. Moreover, the “Plant response rating … Giant” value in experiment [2] (Postemergence) and in experiment [2] (Preemergence) was 0 in each case. For the same molecule, the “Plant response rating … Morningglory” value in experiment [3] (Postemergence) and in experiment [3] (Preemergence) was 0 in each case. Also, the “Plant response rating … Large” value in experiment [4] (Postemergence) and in experiment [4] (Preemergence) was 0 in each case. The “Plant response rating … Barnyardgrass” value in experiment [5] (Postemergence) and in experiment [5] (Preemergence) was 0 in each case. Also, the “Plant response rating … Velvetleaf” value in experiment [6] (Postemergence) and in experiment [6] (Preemergence) was 90 each time. Also, the “Plant response rating … Pigweed” value stood at 90 in experiment [7] (Postemergence) and 100 in experiment [7] (Preemergence).
